Reference: ChEMBL document CHEMBL5126592, “Design, synthesis and activity against drug-resistant bacteria evaluation of C-20, C-23 modified 5-O-mycaminosyltylonolide derivatives” (Eur J Med Chem, 2022)
≈ marks a conversion by molar mass, not a printed value.

Assays:
[1] = Genotoxicity in Salmonella typhimurium TA1537 assessed as number of revertants at 2x10^-4 mg/plate incubated for 72 hrs in absence of liver S9 fraction by Ames test (reference value: 22.67 +/- 2.52); type: toxicity; settings: salmonella enterica subsp. enterica serovar typhimurium, s9, 72 h
Staphylococcus aureus [2] = experiment: Antibacterial activity against Staphylococcus aureus ATCC 29213 at pH 8.6 incubated for 16 to 20 hrs in presence of 25% foetal bovine serum by broth microdilution method; type: functional; settings: time 16-20 hrs
Escherichia coli [3] = experiment: Ratio of MBC to MIC for Escherichia coli ATCC 25922; type: functional
Escherichia coli [4] = experiment: Antibacterial activity against Escherichia coli ATCC 25922 at pH 8.4 incubated for 16 to 20 hrs by broth microdilution method; type: functional; settings: time 16-20 hrs
Staphylococcus aureus [5] = experiment: Antibacterial activity against Staphylococcus aureus ATCC 29213 at pH 8.4 incubated for 16 to 20 hrs by broth microdilution method; type: functional; settings: time 16-20 hrs
Staphylococcus aureus [6] = experiment: Antibacterial activity against Staphylococcus aureus ATCC 29213 incubated for 16 to 20 hrs using 10^5 CFU/ml bacterial inoculum by broth microdilution method; type: functional; settings: time 16-20 hrs
[7] = Genotoxicity in Salmonella typhimurium TA100 assessed as number of revertants at 1x10^-3 mg/plate incubated for 72 hrs in absence of liver S9 fraction by Ames test (reference value: 221.67 +/- 15.57); type: toxicity; settings: salmonella enterica subsp. enterica serovar typhimurium, s9, 72 h
Staphylococcus aureus [8] = experiment: Antibacterial activity against Staphylococcus aureus ATCC 29213 incubated for 16 to 20 hrs using 10^4 CFU/ml bacterial inoculum by broth microdilution method; type: functional; settings: time 16-20 hrs
[9] = Genotoxicity in Salmonella typhimurium TA100 assessed as number of revertants at 1.6x10^-6 mg/plate incubated for 72 hrs in absence of liver S9 fraction by Ames test (reference value: 221.67 +/- 15.57); type: toxicity; settings: salmonella enterica subsp. enterica serovar typhimurium, s9, 72 h
Staphylococcus aureus [10] = experiment: Antibacterial activity against Staphylococcus aureus ATCC 29213 at pH 6.8 incubated for 16 to 20 hrs by broth microdilution method; type: functional; settings: time 16-20 hrs
Enterococcus faecium = experiment: Antibacterial activity against Enterococcus faecium incubated for 16 to 20 hrs by broth microdilution method; type: functional; settings: time 16-20 hrs
[11] = Genotoxicity in Salmonella typhimurium TA1537 assessed as number of revertants at 1x10^-3 mg/plate incubated for 72 hrs in absence of liver S9 fraction by Ames test (reference value: 22.67 +/- 2.52); type: toxicity; settings: salmonella enterica subsp. enterica serovar typhimurium, s9, 72 h
Escherichia coli [12] = experiment: Antibacterial activity against Escherichia coli ATCC 25922 at pH 7.8 incubated for 16 to 20 hrs by broth microdilution method; type: functional; settings: time 16-20 hrs
[13] = Genotoxicity in Salmonella typhimurium TA1535 assessed as number of revertants at 4x10^-5 mg/plate incubated for 72 hrs in presence of liver S9 fraction by Ames test (reference value: 15.33 +/- 2.52); type: toxicity, subcellular; settings: salmonella enterica subsp. enterica serovar typhimurium, s9, 72 h

CC[C@H]1OC(=O)C[C@@H](O)[C@H](C)[C@@H](O[C@@H]2O[C@H](C)[C@@H](O)[C@H](N(C)C)[C@H]2O)[C@@H](CCN(C)Cc2cn(-c3cnc4ccccc4c3)nn2)C[C@@H](C)C(=O)/C=C/C(C)=C/[C@@H]1CN1CCCCCC1
Activity [1]: 15.67
MIC (Staphylococcus aureus [2]): 1 µg/mL
Ratio (Escherichia coli [3]): 2
MIC (Escherichia coli [4]): 0.25 µg/mL (≈ 0.277 µM)
MIC (Staphylococcus aureus [5]): ≤ 0.0625 µg/mL
MIC (Staphylococcus aureus [6]): 0.125 µg/mL (≈ 0.139 µM)
Activity [7]: 231
MIC (Staphylococcus aureus [8]): 0.125 µg/mL (≈ 0.139 µM)
Activity [9]: 157.67
MIC (Staphylococcus aureus [10]): 4 µg/mL (≈ 4.43 µM)
MIC (Enterococcus faecium): 1 µg/mL (≈ 1.11 µM)
Activity [11]: 15.33
MIC (Escherichia coli [12]): 0.5 µg/mL (≈ 0.554 µM)
Activity [13]: 15
